In the supplement of paper PMC10307832:

Key:
Experiment in all cases: relative viability (nuclei count vs DMSO), 5 days (fraction); higher = more cells survive
[1] = compound: CC[C@H](Nc1ncnc2[nH]cnc12)c1nc2cccc(F)c2c(=O)n1-c1ccccc1 [Idelalisib] + O=C(c1cc(Cc2n[nH]c(=O)c3ccccc23)ccc1F)N1CCN(C(=O)C2CC2)CC1 [Olaparib] (partner 8 µM)
Summary of the method: (§1)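 One day after seeding in 1536-well plates, lung cancer cell lines were dosed by pin tool. Dosing was either single-drug or a fixed anchor-drug dose plus five library-drug doses (not always all listed) in √10 steps. After 5 days, nuclei were stained in one fix-and-stain step and counted on 4× images, and relative viability is the nuclei count of treated wells over that of vehicle wells, given as the median of duplicate plates.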

[2] = compound: Nc1nc2[nH]cc(CCc3ccc(C(=O)N[C@@H](CCC(=O)O)C(=O)O)cc3)c2c(=O)[nH]1 [Pemetrexed] + COc1cc2c(Oc3ccc(NC(=O)C4(C(=O)Nc5ccc(F)cc5)CC4)cc3F)ccnc2cc1OCCCN1CCOCC1 [Foretinib] (partner 0.25 µM)
Summary of the method: as §1

[3] = compound: CC[C@H](Nc1ncnc2[nH]cnc12)c1nc2cccc(F)c2c(=O)n1-c1ccccc1 [Idelalisib] + CC(=O)Nc1cccc(-n2c(=O)n(C3CC3)c(=O)c3c(Nc4ccc(I)cc4F)n(C)c(=O)c(C)c32)c1 [Trametinib] (partner 0.02 µM)
Summary of the method: as §1

[4] = compound: Nc1nc2[nH]cc(CCc3ccc(C(=O)N[C@@H](CCC(=O)O)C(=O)O)cc3)c2c(=O)[nH]1 [Pemetrexed] + N=C(N)NC(=N)NCCc1ccccc1 [Phenformin] (partner 250 µM)
Summary of the method: as §1

| Cell Line | relative viability ([1]; first compound 0.04 µM) | relative viability ([1]; first compound 0.1265 µM) | relative viability ([1]; first compound 0.4 µM) | relative viability ([1]; first compound 1.265 µM) | relative viability ([1]; first compound 4 µM) | relative viability ([2]; first compound 0.002 µM) | relative viability ([2]; first compound 0.006325 µM) | relative viability ([2]; first compound 0.02 µM) | relative viability ([2]; first compound 0.06325 µM) | relative viability ([2]; first compound 0.2 µM) | relative viability ([3]; first compound 0.04 µM) | relative viability ([3]; first compound 0.1265 µM) | relative viability ([3]; first compound 0.4 µM) | relative viability ([3]; first compound 1.265 µM) | relative viability ([3]; first compound 4 µM) | relative viability ([4]; first compound 0.002 µM) | relative viability ([4]; first compound 0.006325 µM) | relative viability ([4]; first compound 0.02 µM) | relative viability ([4]; first compound 0.06325 µM) | relative viability ([4]; first compound 0.2 µM) |
| --- | --- | --- | --- | --- | --- | --- | --- | --- | --- | --- | --- | --- | --- | --- | --- | --- | --- | --- | --- | --- |
| COR-L 105 | 0.628 | 0.638 | 0.656 | 0.715 | 0.666 | 0.97 | 1.16 | 1.17 | 1.15 | 1.24 | 0.518 | 0.41 | 0.41 | 0.456 | 0.461 | 0.405 | 0.45 | 0.49 | 0.524 | 0.449 |
| LU99A | 0.251 | 0.25 | 0.274 | 0.206 | 0.241 | 0.776 | 0.775 | 0.811 | 0.793 | 0.768 | 0.6 | 0.539 | 0.546 | 0.542 | 0.502 | 0.784 | 0.93 | 0.848 | 0.779 | 0.786 |
| NCI-H596 | 0.662 | 0.667 | 0.707 | 0.647 | 0.675 | 0.765 | 0.83 | 0.938 | 0.786 | 0.581 | 0.756 | 0.82 | 0.782 | 0.878 | 0.592 | 0.766 | 0.702 | 0.775 | 0.751 | 0.565 |
| 201T | 0.825 | 0.836 | 0.837 | 0.821 | 0.839 | 1.1 | 1.11 | 1.19 | 0.69 | 0.316 | 0.701 | 0.697 | 0.688 | 0.759 | 0.734 | 0.428 | 0.494 | 0.479 | 0.426 | 0.403 |
| HCC-15 | 0.743 | 0.583 | 0.699 | 0.799 | 0.707 | 0.987 | 0.987 | 1.06 | 0.645 | 0.219 | 0.379 | 0.29 | 0.315 | 0.356 | 0.332 | 0.439 | 0.455 | 0.531 | 0.372 | 0.21 |
